Results: paper PMC10143822, “Structural Adaptation of the Single-Stranded DNA-Binding Protein C-Terminal to DNA Metabolizing Partners Guides Inhibitor Design” (Pharmaceutics, 2023)
Like-named read-outs stand apart in the source and are kept apart here. Where a SMILES comes first, the peptide text is derived from it. Where no end group is shown, it is not given here. [ ]: non-standard residue; d: D form. Phe(4-CF3) = N[C@@H](Cc1ccc(C(F)(F)F)cc1)C(=O)O; Phe(4-F) = N[C@@H](Cc1ccc(F)cc1)C(=O)O; Tic = O=C(O)[C@@H]1Cc2ccccc2CN1; β3hF = N[C@H](CC(=O)O)Cc1ccccc1; 2Thi = N[C@@H](Cc1cccs1)C(=O)O

Experiments:
ExoI [1] = molecular target: T1, ExoI (Escherichia coli, UniProt P04995); test: biochemical; type: binding, E. coli
T1 construct: His-tag (cleaved yes); host or cells: E. coli BL21 (DE3) pLysS
Procedure: (§1) Triplicate measurements were performed using a Clariostar Plus Microplate Reader in 384-well plates for all fluorescence anisotropy (FA) experiments. The settings were 25 °C, excitation at 485 nm, emission at 510 nm, settling time of 0.2 s, and 200 flashes per well.
(§2) Competition fluorescence anisotropy experiments were carried out as follows: protein (0.5 μM either ExoI or RecO) was incubated with 50 nM F-wtSSB peptide and 0–500 μM unlabeled wtSSB (or a variant) peptide for 30 min at room temperature. For direct fluorescence anisotropy measurements, 16 µM ExoI and 7.5 µM RecO were used in the first well. After serial dilution, either 50 nM of F-mSSB or F-sSSB was added to the wells and then incubated for 30 min. Buffers used included 20 mM Tris-HCl (pH 8.0), 100 mM NaCl, 1 mM MgCl2, 1 mM 2-mercaptoethanol, 10% (v/v) glycerol, for ExoI and 20 mM Tris-HCl (pH 8.0), 200 mM NaCl, 1 mM 2-mercaptoethanol, 10% (v/v) glycerol, and 0.01% Triton-X 100 for RecO [37].
(§3) Fluorescence anisotropy values were normalized and are shown as bound fractions (BF, %). BF=r−rmin/λ(rmax−r)+r−rmin, I=2∗PG+S, r=S−PG/I, where r: anisotropy, I: total intensity, P: perpendicular intensity, S: parallel intensity, G: an instrument factor set to 1, BF: ligand fraction bound, and λ=λbound/λunbound=1 .
(§4) Competitive fluorescence anisotropy was analyzed in Origin Pro 9.5, and IC50 values were determined using the Logistic Nonlinear fit function and are shown as plots for each mutated position for each protein in Figures S4 and S6. EC50 values from direct fluorescence anisotropy titrations were plotted in Origin 9.5. Values were determined using the Logistics Nonlinear fit function.

ExoI [2] = molecular target: T1, ExoI; test: Isothermal titration calorimetry with ExoI; type: binding, E. coli
Procedure: Isothermal titration calorimetry (ITC) experiments were performed using a MicroCal VP-ITC titration microcalorimeter. ExoI was dialyzed extensively against the indicated buffer and cleared through centrifugation at 14,000 rpm for 15 min at 4 °C. RecO was subjected to a quick buffer exchange using an Amicon Ultra ultrafiltration device (Sigma). Protein concentrations were determined after the buffer exchange procedure.
The raw data were integrated using NITPIC [39]. The binding parameters, association equilibrium constant (KA), binding enthalpy (ΔH), and binding entropy (ΔS) were obtained by fitting the titration curves to a model of A + B = C in SEDPHAT [40]. Stoichiometry was fixed to 1:1 and the incompetent fraction was fitted for the protein concentration.

RecO = molecular target: T2, RecO (Escherichia coli, UniProt P0A7H3); test: biochemical; type: binding; settings: 0.5 μM RecO, 50 nM F-wtSSB tracer
T2 construct: His-tag (TEV site) (N, cleaved yes); made in house; host or cells: E. coli Rosetta cells
Procedure: as §1, §2, §3, §4

[3] = 0–500 μM unlabeled peptide, 30 min room temperature, 20 mM Tris-HCl pH 8.0, 200 mM NaCl, 10% glycerol, 0.01% Triton-X 100, 25 °C, triplicate, read-out: IC50 on RecO, competitive fluorescence anisotropy

T2 sequence (P0A7H3 whole entry): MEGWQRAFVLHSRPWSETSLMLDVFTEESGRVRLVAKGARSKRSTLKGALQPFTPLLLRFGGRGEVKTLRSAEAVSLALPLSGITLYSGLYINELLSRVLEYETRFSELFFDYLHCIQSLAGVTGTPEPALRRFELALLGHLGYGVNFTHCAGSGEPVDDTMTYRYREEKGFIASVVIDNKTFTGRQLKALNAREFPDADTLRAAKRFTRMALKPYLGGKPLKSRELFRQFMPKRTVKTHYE

Molecule	IC50 (ExoI [1])	Kd (ExoI [2])	IC50 (RecO; [3])	IC50 (RecO; bound given in mM, read-out: IC50 on RecO, competitive fluorescence anisotropy (no direct inhibitory effect detected))
CC[C@H](C)[C@H](NC(=O)[C@H](CC(=O)O)NC(=O)[C@H](CC(=O)O)NC(=O)[C@H](CC(=O)O)NC(=O)[C@H](Cc1ccc(C(F)(F)F)cc1)NC(=O)[C@H](CC(=O)O)NC(C)=O)C(=O)N1CCC[C@H]1C(=O)N[C@@H](Cc1ccc(C(F)(F)F)cc1)C(=O)O [E2-sSSB-Ct] (Ac-D[Phe(4-CF3)]DDDIP[Phe(4-CF3)]-OH)	0.35 µM	0.04 µM	–	–
CC[C@H](C)[C@H](NC(=O)[C@H](CC(=O)O)NC(=O)[C@H](CC(=O)O)NC(=O)[C@H](CC(=O)O)NC(=O)[C@H](Cc1ccccc1)NC(=O)[C@H](CC(=O)O)NC(C)=O)C(=O)N1CCC[C@H]1C(=O)N[C@@H](Cc1ccc(F)cc1)C(=O)O [4-F-Phe8] (Ac-DFDDDIP[Phe(4-F)]-OH)	3.04 ± 0.64 µM	–	0.00407 ± 0.00798 mM	–
CC[C@H](C)[C@H](NC(=O)[C@H](CC(=O)O)NC(=O)[C@H](CC(=O)O)NC(=O)[C@H](CC(=O)O)NC(=O)C[C@H](Cc1ccccc1)NC(=O)[C@H](CC(=O)O)NC(C)=O)C(=O)N1CCC[C@H]1C(=O)N[C@@H](Cc1ccccc1)C(=O)O [β3-Phe2] (Ac-D[β3hF]DDDIPF-OH)	3.8 ± 0.11 µM	–	0.00366 ± 0.00061 mM	–
CC[C@H](C)[C@H](NC(=O)[C@H](CC(=O)O)NC(=O)[C@H](CC(=O)O)NC(=O)[C@H](CC(=O)O)NC(=O)[C@H](Cc1ccccc1)NC(=O)[C@H](CC(=O)O)NC(C)=O)C(=O)N1CCC[C@@H]1C(=O)N[C@@H](Cc1ccccc1)C(=O)O [D-Pro7] (Ac-DFDDDI[dP]F-OH)	61.5 ± 16.2 µM	–	0.0116 ± 0.0109 mM	–
CC[C@H](C)[C@H](NC(=O)[C@H](CC(=O)O)NC(=O)[C@H](CC(=O)O)NC(=O)[C@H](CC(=O)O)NC(=O)[C@H](Cc1cccs1)NC(=O)[C@H](CC(=O)O)NC(C)=O)C(=O)N1CCC[C@H]1C(=O)N[C@@H](Cc1ccccc1)C(=O)O [Thi2] (Ac-D[2Thi]DDDIPF-OH)	4.22 ± 0.81 µM	–	0.00527 ± 0.00028 mM	–
CC[C@H](C)[C@H](NC(=O)[C@H](CC(=O)O)NC(=O)[C@H](CC(=O)O)NC(=O)[C@H](CC(=O)O)NC(=O)[C@@H]1Cc2ccccc2CN1C(=O)[C@H](CC(=O)O)NC(C)=O)C(=O)N1CCC[C@H]1C(=O)N[C@@H](Cc1ccccc1)C(=O)O [Tic2] (Ac-D[Tic]DDDIPF-OH)	6.6 ± 0.55 µM	–	0.00399 ± 0.0001 mM	–
Ac-DFNDDIPF [Asn3]	6.36 ± 0.36 µM	–	0.0142 ± 0.0018 mM	–
CC[C@H](C)[C@H](NC(=O)[C@H](CC(=O)O)NC(=O)[C@H](CC(=O)O)NC(=O)[C@H](CC(=O)O)NC(=O)[C@H](Cc1ccccc1)NC(=O)[C@H](CC(=O)O)NC(C)=O)C(=O)N1CCC[C@H]1C(=O)N[C@@H](Cc1cccs1)C(=O)O [Thi8] (Ac-DFDDDIP[2Thi]-OH)	7.72 ± 0.51 µM	–	0.00859 ± 0.00726 mM	–
CC[C@H](C)[C@H](NC(=O)[C@H](CC(=O)O)NC(=O)[C@H](CC(=O)O)NC(=O)[C@H](CC(=O)O)NC(=O)[C@@H](Cc1ccccc1)NC(=O)[C@H](CC(=O)O)NC(C)=O)C(=O)N1CCC[C@H]1C(=O)N[C@@H](Cc1ccccc1)C(=O)O [D-Phe2] (Ac-D[dF]DDDIPF-OH)	3.49 ± 2.41 µM	–	0.00275 ± 0.00059 mM	–
CC(=O)N[C@@H](CC(=O)O)C(=O)N[C@@H](Cc1ccccc1)C(=O)N[C@@H](CC(=O)O)C(=O)N[C@@H](CC(=O)O)C(N)=O [DFDD] (Ac-DFDD-NH2)	312 ± 16.7 µM	–	–	> 3 mM
